# Test results from PubChem BioAssay AID248 (DTP/NCI, 2004).
# “And” between values parts separate entries of the source, which are not always exact repeats. Equal values may be shown once. Toxic doses and inconclusive results are not listed. Square brackets hold non-standard residues; d marks the D form. Peptide text beside a SMILES is read from it. * marks the point of attachment. ξ: configuration not given here. Cbz = O=C(OCc1ccccc1)*; ξI = CCC(C)C(N)C(=O)O; OBn = c1ccc(CO*)cc1
# System: L1210 leukemia ip in BDF1 mice, survival T/C
# Test: NCI In Vivo Anticancer Drug Screen. Data for tumor model L1210 Leukemia (intraperitoneal) in B6D2F1 (BDF1) mice
# Settings: higher = longer survival
# How it was run: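 Antitumor effect is assessed in tumor-bearing animals. Survival in the compound arm is compared with a vehicle-dosed control arm and expressed as their quotient.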
# [1] = endpoint: mean survival time, dose: 100.0 mg/kg/injection, schedule: Q04DX003 (ip), vehicle: saline with Tween-80
# [2] = endpoint: mean survival time, dose: 200.0 mg/kg/injection, schedule: Q04DX003 (ip), vehicle: saline with Tween-80
# [3] = endpoint: mean survival time, dose: 400.0 mg/kg/injection, schedule: Q04DX003 (ip), vehicle: saline with Tween-80
# [4] = endpoint: mean survival time, dose: 100.0 mg/kg/injection, schedule: Q01DX009 (ip), vehicle: Klucel (hydroxypropylcellulose) (HPC)
# [5] = endpoint: mean survival time, dose: 200.0 mg/kg/injection, schedule: Q01DX009 (ip), vehicle: Klucel (hydroxypropylcellulose) (HPC)
smiles,measurement,setting,value
S=P(N1CC1)(N1CC1)N1CC1,T/C,"endpoint: mean survival time, dose: 0.19 mg/kg/injection, schedule: Q01DX009 (ip), vehicle: saline",103 % of control and 104 % of control
same,T/C,"endpoint: mean survival time, dose: 0.3 mg/kg/injection, schedule: Q01DX Z (ip), vehicle: carboxymethylcellulose (CMC)",106 % of control
same,T/C,"endpoint: mean survival time, dose: 0.38 mg/kg/injection, schedule: Q01DX009 (ip), vehicle: saline",104 % of control and 111 % of control
same,T/C,"endpoint: mean survival time, dose: 0.6 mg/kg/injection, schedule: Q01DX Z (ip), vehicle: carboxymethylcellulose (CMC)",101 % of control
same,T/C,"endpoint: mean survival time, dose: 0.75 mg/kg/injection, schedule: Q01DX009 (ip), vehicle: saline",107 % of control and 120 % of control
same,T/C,"endpoint: mean survival time, dose: 1.0 mg/kg/injection, schedule: Q01DX001 (ip), vehicle: saline",95 % of control (2×) and 119 % of control
same,T/C,"endpoint: mean survival time, dose: 1.0 mg/kg/injection, schedule: Q01DX001 (oral), vehicle: saline",98 % of control and 105 % of control
same,T/C,"endpoint: mean survival time, dose: 1.0 mg/kg/injection, schedule: Q01DX009 (ip), vehicle: saline",98 % of control and 119 % of control
same,T/C,"endpoint: mean survival time, dose: 1.0 mg/kg/injection, schedule: Q04DX002 (ip), vehicle: saline",102 % of control and 121 % of control
same,T/C,"endpoint: mean survival time, dose: 1.0 mg/kg/injection, schedule: Q04DX003 (ip), vehicle: saline",96 % of control and 104 % of control and 116 % of control
same,T/C,"endpoint: mean survival time, dose: 1.2 mg/kg/injection, schedule: Q01DX Z (ip), vehicle: carboxymethylcellulose (CMC)",109 % of control
same,T/C,"endpoint: mean survival time, dose: 1.25 mg/kg/injection, schedule: Q01DX Z (ip), vehicle: saline",118 % of control
same,T/C,"endpoint: mean survival time, dose: 1.5 mg/kg/injection, schedule: Q01DX010 (oral), vehicle: carboxymethylcellulose (CMC)",113 % of control
same,T/C,"endpoint: mean survival time, dose: 1.56 mg/kg/injection, schedule: Q01DX009 (ip), vehicle: saline",102 % of control and 117 % of control
same,T/C,"endpoint: mean survival time, dose: 1.65 mg/kg/injection, schedule: Q01DX001 (ip), vehicle: saline",104 % of control
same,T/C,"endpoint: mean survival time, dose: 2.0 mg/kg/injection, schedule: Q01DX001 (ip), vehicle: saline",97 % of control and 103 % of control and 114 % of control
same,T/C,"endpoint: mean survival time, dose: 2.0 mg/kg/injection, schedule: Q01DX001 (oral), vehicle: saline",98 % of control and 102 % of control
same,T/C,"endpoint: mean survival time, dose: 2.0 mg/kg/injection, schedule: Q01DX009 (ip), vehicle: saline",108 % of control
same,T/C,"endpoint: mean survival time, dose: 2.0 mg/kg/injection, schedule: Q04DX002 (ip), vehicle: saline",101 % of control and 107 % of control
same,T/C,"endpoint: mean survival time, dose: 2.0 mg/kg/injection, schedule: Q04DX003 (ip), vehicle: saline",102 % of control and 109 % of control and 116 % of control
same,T/C,"endpoint: mean survival time, dose: 2.4 mg/kg/injection, schedule: Q01DX Z (ip), vehicle: carboxymethylcellulose (CMC)",121 % of control and 123 % of control
same,T/C,"endpoint: mean survival time, dose: 2.5 mg/kg/injection, schedule: Q01DX001 (ip), vehicle: saline",110 % of control
same,T/C,"endpoint: mean survival time, dose: 2.5 mg/kg/injection, schedule: Q01DX Z (ip), vehicle: saline",120 % of control
same,T/C,"endpoint: mean survival time, dose: 3.0 mg/kg/injection, schedule: Q01DX001 (ip), vehicle: saline",106 % of control
same,T/C,"endpoint: mean survival time, dose: 3.0 mg/kg/injection, schedule: Q01DX010 (oral), vehicle: carboxymethylcellulose (CMC)",115 % of control
same,T/C,"endpoint: mean survival time, dose: 3.6 mg/kg/injection, schedule: Q01DX Z (ip), vehicle: carboxymethylcellulose (CMC)",118 % of control
same,T/C,"endpoint: mean survival time, dose: 3.8 mg/kg/injection, schedule: Q01DX001 (ip), vehicle: saline",110 % of control
same,T/C,"endpoint: mean survival time, dose: 4.0 mg/kg/injection, schedule: Q01DX001 (ip), vehicle: saline",97 % of control and 106 % of control and 111 % of control
same,T/C,"endpoint: mean survival time, dose: 4.0 mg/kg/injection, schedule: Q01DX001 (oral), vehicle: saline",101 % of control and 105 % of control
same,T/C,"endpoint: mean survival time, dose: 4.0 mg/kg/injection, schedule: Q01DX009 (ip), vehicle: saline",160 % of control and 161 % of control and 191 % of control
same,T/C,"endpoint: mean survival time, dose: 5.0 mg/kg/injection, schedule: Q01DX Z (ip), vehicle: saline",102 % of control
same,T/C,"endpoint: mean survival time, dose: 5.7 mg/kg/injection, schedule: Q01DX001 (ip), vehicle: saline",111 % of control
same,T/C,"endpoint: mean survival time, dose: 6.0 mg/kg/injection, schedule: Q01DX001 (ip), vehicle: saline",113 % of control and 123 % of control
same,T/C,"endpoint: mean survival time, dose: 6.25 mg/kg/injection, schedule: Q01DX009 (ip), vehicle: saline",178 % of control
same,T/C,"endpoint: mean survival time, dose: 7.5 mg/kg/injection, schedule: Q01DX001 (ip), vehicle: saline",106 % of control and 118 % of control
same,T/C,"endpoint: mean survival time, dose: 8.0 mg/kg/injection, schedule: Q01DX001 (oral), vehicle: saline",105 % of control and 117 % of control
same,T/C,"endpoint: mean survival time, dose: 8.0 mg/kg/injection, schedule: Q01DX009 (ip), vehicle: saline",107 % of control and 113 % of control
same,T/C,"endpoint: mean survival time, dose: 8.0 mg/kg/injection, schedule: Q04DX003 (ip), vehicle: saline",150 % of control and 179 % of control
same,T/C,"endpoint: mean survival time, dose: 8.7 mg/kg/injection, schedule: Q01DX001 (ip), vehicle: saline",161 % of control
same,T/C,"endpoint: mean survival time, dose: 11.0 mg/kg/injection, schedule: Q01DX001 (ip), vehicle: saline",122 % of control
same,T/C,"endpoint: mean survival time, dose: 12.0 mg/kg/injection, schedule: Q01DX009 (ip), vehicle: saline",95 % of control and 100 % of control
same,T/C,"endpoint: mean survival time, dose: 12.0 mg/kg/injection, schedule: Q01DX010 (oral), vehicle: carboxymethylcellulose (CMC)",166 % of control
same,T/C,"endpoint: mean survival time, dose: 12.5 mg/kg/injection, schedule: Q01DX009 (ip), vehicle: saline",118 % of control
same,T/C,"endpoint: mean survival time, dose: 14.0 mg/kg/injection, schedule: Q01DX001 (ip), vehicle: saline",109 % of control
same,T/C,"endpoint: mean survival time, dose: 15.0 mg/kg/injection, schedule: Q01DX001 (ip), vehicle: saline",163 % of control and 201 % of control
same,T/C,"endpoint: mean survival time, dose: 16.0 mg/kg/injection, schedule: Q01DX001 (oral), vehicle: saline",121 % of control
same,T/C,"endpoint: mean survival time, dose: 16.0 mg/kg/injection, schedule: Q04DX003 (ip), vehicle: saline",104 % of control
same,T/C,"endpoint: mean survival time, dose: 17.0 mg/kg/injection, schedule: Q01DX001 (ip), vehicle: saline",152 % of control and 155 % of control and 163 % of control
same,T/C,"endpoint: mean survival time, dose: 20.0 mg/kg/injection, schedule: Q01DX001 (ip), vehicle: saline",163 % of control
same,T/C,"endpoint: mean survival time, dose: 22.0 mg/kg/injection, schedule: Q01DX001 (ip), vehicle: saline",191 % of control
same,T/C,"endpoint: mean survival time, dose: 23.0 mg/kg/injection, schedule: Q01DX001 (ip), vehicle: saline",150 % of control
same,T/C,"endpoint: mean survival time, dose: 24.0 mg/kg/injection, schedule: Q01DX010 (oral), vehicle: carboxymethylcellulose (CMC)",152 % of control
same,T/C,"endpoint: mean survival time, dose: 32.0 mg/kg/injection, schedule: Q04DX002 (ip), vehicle: saline",94 % of control
same,T/C,"endpoint: median survival time, dose: 1.5 mg/kg/injection, schedule: Q01DX009 (ip), vehicle: distilled water + alcohol",103 % of control
same,T/C,"endpoint: median survival time, dose: 1.5 mg/kg/injection, schedule: Q01DX009 (ip), vehicle: other",94 % of control
same,T/C,"endpoint: median survival time, dose: 4.0 mg/kg/injection, schedule: Q01DX009 (ip), vehicle: water",151 % of control
same,T/C,"endpoint: median survival time, dose: 5.0 mg/kg/injection, schedule: Q01DX009 (ip), vehicle: water",108 % of control
same,T/C,"endpoint: median survival time, dose: 6.0 mg/kg/injection, schedule: Q01DX009 (ip), vehicle: water",110 % of control
N#Cc1nccc2ccc(OCc3ccc(Br)cc3)cc12,T/C,[1],88 % of control
same,T/C,[2],86 % of control
same,T/C,[3],89 % of control
CN(C(=O)/C=C/c1ccccc1)C1CCCCC1,T/C,[4],101 % of control
same,T/C,[5],110 % of control
same,T/C,"endpoint: mean survival time, dose: 400.0 mg/kg/injection, schedule: Q01DX009 (ip), vehicle: Klucel (hydroxypropylcellulose) (HPC)",111 % of control
O=C1c2cc(-c3ccccc3)c(-c3ccccc3)cc2C(c2ccccc2)(c2ccccc2)C1Br (centres undefined),T/C,[1],94 % of control
same,T/C,[2],91 % of control
same,T/C,[3],93 % of control
CC(C)(CO)C(O)C(=O)NN (centres undefined),T/C,"endpoint: mean survival time, dose: 100.0 mg/kg/injection, schedule: Q01DX001 (ip), vehicle: saline",91 % of control
same,T/C,"endpoint: mean survival time, dose: 200.0 mg/kg/injection, schedule: Q01DX001 (ip), vehicle: saline",94 % of control
COC(=O)NC1CC(CO)CC1O (centres undefined),T/C,"endpoint: mean survival time, dose: 50.0 mg/kg/injection, schedule: Q01DX009 (ip), vehicle: Klucel (hydroxypropylcellulose) (HPC)",91 % of control
same,T/C,[4],89 % of control
same,T/C,[5],91 % of control
CCNCC(=O)N(N=O)C(=O)OCC,T/C,"endpoint: mean survival time, dose: 75.0 mg/kg/injection, schedule: Q01DX001 (ip), vehicle: steriod suspending solution",110 % of control
same,T/C,"endpoint: mean survival time, dose: 150.0 mg/kg/injection, schedule: Q01DX001 (ip), vehicle: steriod suspending solution",102 % of control
CCC(C)C(NC(=O)CNC(=O)OCc1ccccc1)C(=O)OCc1ccccc1 (stereo not drawn) (Cbz-Gly-[ξI]-OBn),T/C,"endpoint: mean survival time, dose: 100.0 mg/kg/injection, schedule: Q04DX003 (ip), vehicle: other",104 % of control
same,T/C,"endpoint: mean survival time, dose: 200.0 mg/kg/injection, schedule: Q04DX003 (ip), vehicle: other",98 % of control
same,T/C,"endpoint: mean survival time, dose: 400.0 mg/kg/injection, schedule: Q04DX003 (ip), vehicle: other",103 % of control
CCc1cc2c([nH]c3ccccc32)c(C)c1CCN(C)C,T/C,"endpoint: mean survival time, dose: 50.0 mg/kg/injection, schedule: Q01DX001 (ip), vehicle: other",101 % of control
same,T/C,"endpoint: mean survival time, dose: 100.0 mg/kg/injection, schedule: Q01DX001 (ip), vehicle: other",97 % of control
same,T/C,"endpoint: mean survival time, dose: 200.0 mg/kg/injection, schedule: Q01DX001 (ip), vehicle: other",95 % of control
N=C(N)SC1c2ccccc2-c2cc([N+](=O)[O-])ccc21 (centres undefined),T/C,"endpoint: mean survival time, dose: 100.0 mg/kg/injection, schedule: Q01DX005 (ip), vehicle: Klucel (hydroxypropylcellulose) (HPC)",105 % of control
same,T/C,"endpoint: mean survival time, dose: 100.0 mg/kg/injection, schedule: Q04DX002 (ip), vehicle: Klucel (hydroxypropylcellulose) (HPC)",101 % of control
same,T/C,"endpoint: mean survival time, dose: 200.0 mg/kg/injection, schedule: Q01DX005 (ip), vehicle: Klucel (hydroxypropylcellulose) (HPC)",98 % of control
same,T/C,"endpoint: mean survival time, dose: 200.0 mg/kg/injection, schedule: Q04DX002 (ip), vehicle: Klucel (hydroxypropylcellulose) (HPC)",114 % of control
